Like-named read-outs stand apart in the source and are kept apart here.
Tests used:
[1] = target: adenosine deaminase (ADA); conditions: read-out: Ki value (ADA); background statement; cited from earlier work
[2] = system: intact hearts from male Sprague-Dawley rats; experiment: Langendorf isolated perfused heart, simulated ischemia 20 minutes then reoxygenation; parameters: species or system rat; conditions: for % fibr.: isolated rat hearts, 10 min drug treatment, 20 min ischemia; for # fibrillating: number of hearts fibrillating out of Total #
Description: The tests carried out by Dr. Rodgers used a widely-used protocol known as a "Langendorf" preparation, which involves removing intact hearts from sacrificed lab animals (male Sprague-Dawley rats were used), and perfusing the hearts with liquids containing controlled quantities (or deficits) of oxygen and glucose for fixed periods of time. […] The left atrium is filled at 15 cm H2 O pressure, and the left ventricle ejects into a buffer-filled column against a pressure which equates to 72 mm Hg, except during ischemic periods. The perfusate was Krebs-Henseleit buffer with HCO3 (25 mM), Ca^++ (2.2 mM), and glucose (10 mM). […] Pefusate and ambient temperatures were held at 37° C. and the hearts were allowed to beat spontaneously.
Following stabilization and treatment, the hearts were subjected to simulated ischemia for 20 minutes; no oxygen was added to the perfusate during this period. When the ischemic period ended, oxygen was again added to the perfusion buffer, and the following parameters were measured over a period of 10 minutes:
LVPP--left ventricular pulse pressures (time-dependent pressures, calculated as peak pressure minus diastolic pressure, in mm Hg, millimeters of mercury column)
LVEDP--left ventricular end diastolic pressure (i.e, time-dependent pressures as the ventricle relaxed during diastolic filling, in mm Hg)
CFR--coronary flow rate (mL/min)
HR--spontaneous heartbeat rate (beats/min)
ECG--electrocardiogram (surface potential, in mV)

[3] = mammalian bloodstream; cited from earlier work
[4] = target: T1, calf intestinal ADA (Type III, Sigma Chemical Company) (Bos taurus, UniProt P56658); experiment: Testing for ADA inhibition, direct spectrophotometric assay at 265 nm; assay type: biochemical; conditions: for Ki: calf intestinal ADA, 30° C.; for inhibition of ADA activity (in words): tested as in Example 2
T1 construct: purchased Sigma Chemical Company Type III; host or cells: calf intestine
T1 sequence (P56658 1-363): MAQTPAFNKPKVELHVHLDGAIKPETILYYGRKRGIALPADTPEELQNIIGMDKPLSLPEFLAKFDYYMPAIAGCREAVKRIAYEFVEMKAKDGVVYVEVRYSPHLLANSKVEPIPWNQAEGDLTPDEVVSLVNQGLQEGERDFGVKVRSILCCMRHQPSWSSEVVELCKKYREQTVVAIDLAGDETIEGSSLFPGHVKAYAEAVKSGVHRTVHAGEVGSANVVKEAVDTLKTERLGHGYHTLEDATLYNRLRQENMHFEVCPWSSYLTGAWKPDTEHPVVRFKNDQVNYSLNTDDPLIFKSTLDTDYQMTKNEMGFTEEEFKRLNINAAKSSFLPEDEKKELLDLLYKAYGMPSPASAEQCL
Protocol: Compounds [10] (the 9-hydroxy analog), [23] (the 8-hydroxy analog), and [14] (the 8,9-dihydroxy analog) were tested for ADA inhibition activity, using calf intestinal ADA (Type III, Sigma Chemical Company) measured at 30° C. by direct spectrophotometric assays at 265 nm, as described in Harriman et al 1992.
Several of the analogs described in Example 3 were tested for inhibition of the adenosine deaminase (ADA) enzyme, using the procedures described in Example 2.

[5] = animals; cited from earlier work
[6] = isolated rat hearts after ischemia
[7] = read-out: Ki value (ADA inhibition)
[8] = read-out: Ki values (ADA inhibition)

| Compound | % fibr. [2] | # fibrillating [2] | Ki [4, 7] | Ki [4, 8] | inhibition of ADA activity (in words) [4] | further results |
| --- | --- | --- | --- | --- | --- | --- |
| CCCCCC[C@H]([C@H](C)O)n1cnc2c(N)ncnc21 (relative stereo) [EHNA, erythro-hydroxynonyladenine] | 14% | 1 | – | – | – | Ki [1]: ~4 nM; LVPP (left ventricular pulse pressure) after ischemia [2, 6]: moderate increase; coronary flow rate after ischemia [2, 6]: moderate increase; incidence of fibrillation (in words) [2, 6]: reduced the incidence of fibrillation; metabolism and clearance from bloodstream [3]: metabolized and cleared from the mammalian bloodstream fairly rapidly |
| C[C@H](O)[C@@H](CCCCC(O)CO)n1cnc2c(N)ncnc21 (single isomer, unassigned) [Compound 14] | – | – | 6 nM | 6 nM | effective inhibitor of ADA activity | – |
| CC(O)CCCC[C@H]([C@H](C)O)n1cnc2c(N)ncnc21 (single isomer, unassigned) [Compound 23] | – | – | 11 nM | 11 nM | shown to inhibit ADA activity | – |
| C[C@H](O)[C@@H](CCCCCCO)n1cnc2c(N)ncnc21 [Compound 10] | 11% | 1 | 3.4 nM | 3.4 nM | effective inhibitor of ADA activity | LVPP (left ventricular pulse pressure) after ischemia [2, 6]: moderate increase; coronary flow rate after ischemia [2, 6]: moderate increase; incidence of fibrillation (in words) [2, 6]: reduced the incidence of fibrillation; LVEDP (left ventricular end diastolic pressure), protection against muscle stiffening ([2]; isolated rat hearts after ischemia, compared with EHNA): significantly higher level of protection against muscle stiffening than unmodified EHNA |
| C[C@H](O)[C@@H](CCCCCCOC(=O)c1ccccc1)n1cnc2c(N)ncnc21 [Compound 25, 9-[9-Benzoyloxy-2(S)-hydroxy-3(R)-nonyl]adenine] | – | – | – | – | potency in the desired range | – |
| C[C@H](O)[C@@H](CCCCCCCl)n1cnc2c(N)ncnc21 [Compound 29, 9-[9-chloro-2(S)-hydroxy-3(R)-nonyl]adenine] | – | – | – | 3.7 nM | potency in the desired range | – |
| COC(=O)CCCCC[C@H]([C@H](C)O)n1cnc2c(N)ncnc21 [Compound 31] | – | – | – | 5 nM | potency in the desired range | – |
| C=CCCCC[C@H]([C@H](C)O)n1cnc2c(N)ncnc21 [Compound 32, 9-[2(S)-hydroxy-3(R)-non-8-enyl]adenine] | – | – | – | – | potency in the desired range | Ki ([4]; Ki values (ADA inhibition)): 2.5 nM |
| CCN(CC)C(=S)SSC(=S)N(CC)CC [Disulfiram, disulfiram] | 40% | 2 | – | – | – | – |
| OC[C@H]1O[C@@H](n2cnc3c2NC=NC[C@H]3O)C[C@@H]1O [dCF, deoxycoformycin] | – | – | – | – | – | toxic side effects [5]: serious and unpredictable toxic side effects in some animals |

— patent US5491146A, “Hydroxylated erythro-hydroxynonyladenines and related analogs” (Cypros Pharmaceutical Corporation, priority 1994, dated 1996)
